# Laboratory results as given in US11717499B2 (priority 2011, dated 2023).
# Entries after “also recorded” stand apart in the source; their conditions may differ. Read-outs that look alike come from different tables or passages of the source. Marks after values point to notes of the source that are not given here.
# Key:
# [1] = system: TNF-α; experiment: Immunoblot of TNF-α expression in placental tissue; assay type: in vivo; conditions: DMA rescued mice vs LPS-triggered PTB mice, p<0.001
# Excerpt: (§1) The probe was thoroughly cleaned after each sample.
# (§2) Chemifluorescence was detected by exposure to an autoradiography film.
# [2] = system: IL-1β; experiment: Immunoblot of IL-1β expression in placental tissue; assay type: in vivo; conditions: DMA rescued mice vs LPS-triggered PTB mice, p<0.01
# Excerpt: as §1, §2
# [3] = system: IL-6; experiment: Immunoblot of IL-6 expression in placental tissue; assay type: in vivo; conditions: DMA rescued mice vs LPS-triggered PTB mice, p<0.05
# Excerpt: as §1, §2
# [4] = system: LPS-triggered PTB; conditions: for Number of pups retained / Number of pups dropped: 50 mg/kg LPS
# Experimental: Mice were then randomly assigned to the control group or one of five treatment groups. […] Additionally, a sixth group of four animals received i.p. injections of 0.5 ml PBS in lieu of LPS at the same time points and served as sham (Table 1).
# After the injection at t=10 hours, mice were continually monitored; time of delivery of the first pup and number of pups dropped over time were recorded. […] All mice were sacrificed by carbon dioxide asphyxiation. The mice were autopsied at the end of experiments to confirm pregnancy and to determine the number of pups retained in utero. Placenta and uteri were harvested and stored.
# [5] = rats, cited from earlier work
# [6] = system: P450-dependent monooxygenase or phase II enzyme activities; conditions: rat; cited from earlier work
Compound,TNF-α expression in placentas [1],IL-1β expression in placentas [2],IL-6 expression in placentas [3],Number of pups retained ([4]; DMA 0.2 mg/kg),"Number of pups dropped ([4]; DMA 0.2 mg/kg, n=47 pups)",Number of pups retained ([4]; DMA 0.39 mg/kg),Number of pups retained ([4]; DMA 0.78 mg/kg),Number of pups retained ([4]; DMA 1.56 mg/kg),"Number of pups dropped ([4]; DMA 1.56 mg/kg, n=47 pups)",Number of pups retained ([4]; DMA 3.1 mg/kg),"Number of pups dropped ([4]; DMA 3.1 mg/kg, n=52 pups)","Prevention of PTB ([4]; highest doses of DMA, 3.1 and 1.56 mg/kg) [%]",Plasma level ([5]; after 24 hours),Plasma half life [5],Induction of hepatic monooxygenases [6]
"CC(=O)N(C)C [DMA, N,N-dimethylacetamide]",suppressed,significantly reduced; also recorded: suppressed,suppressed,35,12,41,69,47,0***,52,0***,100,–,–,–
"CNC(C)=O [MMA, N-monomethylacetamide]",–,–,–,–,–,–,–,–,–,–,–,–,a significant amount of MMA was still present,about 2.2 hours,did not induce any hepatic monooxygenases
